Laboratory results taken from US12391674B2, “Heterocyclic compounds for the treatment of epilepsy” (OTSUKA PHARMACEUTICAL CO., LTD., priority 2018, dated 2025).

Tested on: DBA/2 mice
Assay: Audiogenic seizure model
Type: in vivo
Conditions: Mus musculus, DBA/2 mice, oral, auditory stimulation 1 hour after administration, read-out: Seizure suppression
Method: The animal model used in this test is a phenotype model for partial seizure (including secondary generalized seizure) and generalized tonic-clonic seizure, and has high clinical predictability. This test was performed in accordance with the report of De Sarro et al (Br J Pharmacol. 1988 February; 93 (2): 247-56. Anticonvulsant effects of some calcium entry blockers in DBA/2 mice. De Sarro G B, Meldrum B S, Nistico G.).
In this test example, the example compounds shown in Tables 3-1 to 3-3 below were used as test compounds.
The test compounds were suspended in 5% gum arabic/distilled water (w/v), and administered by forced oral administration to male and female DBA/2 mice (Japan SLC, Inc., 3 weeks old, 8 per group) at a dose of 30 mg/kg. After one hour of the oral administration of the test compound, each mouse was placed in a transparent acrylic cylinder 30 cm high and 23 cm in diameter, and 30 seconds were allowed for habituation. Then, they were exposed to auditory stimulation (12.6 kHz, 100-110 dB) for 1 minute or until a tonic seizure occurred.
The seizure response was assessed using the following scale, 0: no seizure, 1: wild running, 2: clonic seizure, 3: tonic seizure and 4: respiratory arrest. The maximum response was recorded as the seizure severity score.
The seizure suppression rate for each compound administration group was calculated according to the following formula.
Here, a rate of seizure suppression of 90% or more was expressed as “A”, a rate of seizure suppression of 70% or more and less than 90% was expressed as “B”, and a rate of seizure suppression of 50% or more and less than 70% was expressed as “C”.

Compound | inhibition in vivo at 30 mg/kg [%] | other results
Fc1ccccc1Oc1ncc(-c2ccn3nccc3c2)cn1 [Example 195] | > 90 | –
Fc1cc(F)cc(Oc2ncc(-c3ccc4nccn4c3)cn2)c1 [Example 169] | – | inhibition in vivo at 5 mg/kg: > 90%
Cn1ncc2ccc(-c3cnc(Oc4ccccc4F)nc3)nc21 [Example 276] | > 90 | –
FC(F)(F)c1cccc(Oc2ncc(-c3cccnc3)cn2)c1 [Example 14] | > 90 | –
Nc1ccc(-c2cnc(Oc3cccc(OC(F)(F)F)c3)nc2)cn1 [Example 48] | > 90 | –
COCc1cn2cc(-c3cnc(Oc4ccccc4)nc3)ccc2n1 [Example 208] | > 90 | –
[O-][n+]1cccc(-c2cnc(Oc3ccc(F)cc3)nc2)c1 [Example 62] | > 90 | –
O=C1NCCc2cc(-c3cnc(Oc4ccccc4)nc3)ccc21 [Example 247] | > 90 | –
O=C1CCOCCN1c1cnc(Oc2cccc(F)c2)nc1 [Example 233] | > 90 | –
Fc1ccc(Oc2ncc(-c3ccc4nncn4n3)cn2)cc1 [Example 292] | > 90 | –
Fc1ccc(Oc2ncc(-c3ccc4nnc(C(F)(F)F)n4c3)cn2)cc1 [Example 282] | > 90 | –
Fc1ccc(Oc2ncc(-c3ccn4cnnc4c3)cn2)cc1 [Example 213] | > 90 | –
O=C1CCOCCN1c1cnc(Oc2ccccc2)nc1 [Example 232] | > 90 | –
Fc1cccc(Oc2ncc(-c3ccnnc3)cn2)c1 [Example 32] | > 90 | –
Fc1ccc(Oc2ncc(-c3ccn4ccnc4c3)cn2)cc1 [Example 132] | > 90 | –
O=C1CCC(c2cnc(Oc3cccc(F)c3)nc2)=NN1 [Example 94, 6-(2-(3-Fluorophenoxy)Pyrimidin-5-Yl)-4,5-Dihydropyridazin-3 (2H)-One] | > 90 | –
COc1nc(Oc2ccccc2)ncc1-c1ccc2nncn2c1 [Example 159] | > 90 | –
Cn1ncc2ccc(-c3cnc(Oc4cccc(F)c4)nc3)nc21 [Example 277] | > 90 | –
O=C1CCN(c2cccc(Oc3ccc(F)cc3)c2)C(=O)N1 [Example 315] | 70 to 90 | –
Fc1cccc(Oc2ncc(-c3ccn4nccc4c3)cn2)c1 [Example 196] | > 90 | –
Fc1ccccc1Oc1ncc(-c2ccc3nnc(C(F)(F)F)n3c2)cn1 [Example 280] | > 90 | –
Fc1ccc(Oc2ncc(-c3ccc4ncnn4c3)cn2)cc1 [Example 146] | > 90 | –
CN1C(=O)CCN(c2ccc(Oc3cccc(F)c3)cc2)C1=O [Example 308, 1-(4-(3-Fluorophenoxy)Phenyl)-3-Methyldihydropyrimidine-2,4 (1H,3H)-Dione] | 50 to 70 | –
O=C1CCN(c2ccc(Oc3ccc(S(F)(F)(F)(F)F)cc3)cc2)C(=O)N1 [Example 317] | 50 to 70 | –
O=C1CCN(c2cc(F)c(Oc3ccccc3)c(F)c2)C(=O)N1 [Example 330] | 50 to 70 | –
Nc1nccc2c(-c3cnc(Oc4ccccc4)nc3)cccc12 [Example 261] | > 90 | –

Compound | inhibition in vivo at 30 mg/kg [%] | other results
O=c1[nH]nccc1-c1cnc(Oc2cccc(F)c2)nc1 [Example 115] | > 90 | –
COc1nc(Oc2ccccc2)ncc1-c1ccc2nccn2n1 [Example 160] | > 90 | –
Nc1ccc(-c2cnc(Oc3cc(F)cc(F)c3)nc2)cn1 [Example 53] | > 90 | –
Nc1ccc(-c2cnc(Oc3cccc(F)c3F)nc2)cn1 [Example 87] | > 90 | –
Cc1nc2ccc(-c3cnc(Oc4ccccc4F)nc3)cn2c1C [Example 202] | > 90 | –
Cc1ccc(-c2cnc(Oc3cccc(C(F)(F)F)c3)nc2)nn1 [Example 13] | – | inhibition in vivo at 3 mg/kg (dose 3 mg/kg): > 90%
c1ccc(Oc2ncc(-c3ccnc4ncccc34)cn2)cc1 [Example 139, 4-(2-Phenoxypyrimidin-5-Yl)-1,8-Naphthyridine] | > 90 | –
Fc1cccc(Oc2ncc(-c3ccn4ccnc4c3)cn2)c1 [Example 131] | > 90 | –
Fc1ccccc1Oc1ncc(-c2ccc3cncn3c2)cn1 [Example 156] | > 90 | –
Cc1c(-c2cnc(Oc3cccc(F)c3)nc2)ccc2nccn12 [Example 200] | > 90 | –
Fc1ccc(Oc2ncc(-c3ccc4cnnn4c3)cn2)cc1 [Example 176] | > 90 | –
Cc1cnc2ccc(-c3cnc(Oc4cccc(F)c4)nc3)cn12 [Example 192] | > 90 | –
Cc1cn2cc(-c3cnc(Oc4cccc(F)c4)nc3)ccc2n1 [Example 179] | > 90 | –
Nc1cc(-c2cnc(Oc3cccc(F)c3)nc2)ccn1 [Example 78] | > 90 | –
Cc1cccc(Oc2ncc(-c3cccnc3)cn2)c1 [Example 35] | > 90 | –
O=c1[nH]cnc2ccc(-c3cnc(Oc4ccccc4)nc3)cc12 [Example 254] | > 90 | –
Nc1ccc(-c2cnc(Oc3ccc(F)cc3F)nc2)cn1 [Example 86] | > 90 | –
Nc1cc(-c2cnc(Oc3cc(F)cc(F)c3)nc2)ccn1 [Example 82] | > 90 | –
Cc1nc(Oc2ccccc2)ccc1N1CCC(=O)NC1=O [Example 326] | 50 to 70 | –
Fc1ccccc1Oc1ncc(-c2ccc3nccn3n2)cn1 [Example 124] | > 90 | –
Fc1cccc(F)c1Oc1ncc(-c2ccc3nccn3c2)cn1 [Example 167] | – | inhibition in vivo at 5 mg/kg: > 90%
Nc1ccc(-c2cnc(Oc3cc(F)cc(F)c3)nc2)nn1 [Example 41] | > 90 | –
O=c1[nH]nccc1-c1cnc(Oc2ccccc2F)nc1 [Example 117] | > 90 | –
Fc1ccccc1Oc1ncc(-c2ccc3cnnn3c2)cn1 [Example 174] | > 90 | –
c1ccc(Oc2ncc(-c3ccn4ncnc4c3)cn2)cc1 [Example 135] | > 90 | –
O=C1COCCN1c1cnc(Oc2ccc(F)cc2)nc1 [Example 231] | > 90 | –

Compound | inhibition in vivo at 30 mg/kg [%] | other results
c1ccc(Oc2ncc(-c3ccc4ncncc4c3)cn2)cc1 [Example 255] | > 90 | –
O=C1COCCN1c1cnc(Oc2cccc(F)c2)nc1 [Example 230] | > 90 | –
Nc1cc(-c2cnc(Oc3ccccc3F)nc2)ccn1 [Example 80] | > 90 | –
COc1ccc(-c2cnc(Oc3cccc(C#N)c3)nc2)nn1 [Example 73] | > 90 | –
Nc1ccc(-c2cnc(Oc3cccc(F)c3)nc2)cn1 [Example 43] | > 90 | –
Fc1cccc(Oc2ncc(-c3ccn4nncc4c3)cn2)c1 [Example 186] | > 90 | –
O=C1CCN(c2ccc(-c3ccccc3)cc2)C(=O)N1 [Example 327, 1-((1,1′-Biphenyl)-4-Yl)Dihydropyrimidine-2,4 (1H,3H)-Dione] | 50 to 70 | –
O=C1CCOCCN1c1cnc(Oc2ccc(F)cc2)nc1 [Example 234] | > 90 | –
Cc1nc2cc(-c3cnc(Oc4ccccc4F)nc3)ccn2c1C [Example 205] | > 90 | –
COc1ccc(-c2cnc(Oc3ccc(F)cc3F)nc2)nn1 [Example 65] | > 90 | –
COc1ccc(-c2cnc(Oc3cccc(C)c3)nc2)cn1 [Example 29] | > 90 | –
O=c1ccc(-c2cnc(Oc3cccc(F)c3F)nc2)n[nH]1 [Example 110] | > 90 | –
Fc1cc(F)cc(Oc2ncc(-c3cccnc3)cn2)c1 [Example 18] | > 90 | –
Cc1cccc(Oc2ncc(-c3ccc(N)nc3)cn2)c1 [Example 88, 5-(2-(m-Tolyloxy)Pyrimidin-5-Yl)Pyridin-2-Amine] | > 90 | –
Cc1ccc(-c2cnc(Oc3cc(F)cc(F)c3)nc2)nn1 [Example 17] | > 90 | –
O=C1Cc2cc(-c3cnc(Oc4cccc(F)c4)nc3)ccc2N1 [Example 265] | > 90 | –
Nc1cc(-c2cnc(Oc3cccc(OC(F)(F)F)c3)nc2)ccn1 [Example 83] | > 90 | –
Cc1cn2ccc(-c3cnc(Oc4ccccc4F)nc3)cc2n1 [Example 182] | > 90 | –
Nc1ccc(-c2cnc(Oc3ccc(F)cc3)nc2)nn1 [Example 20] | > 90 | –
Fc1cccc(Oc2ncc(-c3ccc4nccn4c3)cn2)c1F [Example 164] | – | inhibition in vivo at 5 mg/kg: > 90%
Fc1cccc(Oc2ncc(-c3ccc4cnc(C(F)(F)F)n4c3)cn2)c1 [Example 287] | > 90 | –
O=C1CCC(c2cnc(Oc3ccccc3F)nc2)=NN1 [Example 96] | > 90 | –
Fc1cccc(Oc2ncc(-c3ccc4cncn4c3)cn2)c1 [Example 157] | > 90 | –
FC(F)(F)Oc1cccc(Oc2ncc(-c3ccc(C(F)(F)F)nn3)cn2)c1 [Example 67] | > 90 | –
COc1nc(Oc2ccccc2)ncc1-c1ccc2nccn2c1 [Example 142] | > 90 | –
